What was measured:
Mu-type opioid receptor = Mu-type opioid receptor (Homo sapiens, UniProt P35372); experiment: DRUGMATRIX: Opiate mu (OP3, MOP) radioligand binding (ligand: [3H] Diprenorphine); format: cell membranes, CHO-K1, Membrane; conditions: cho-k1; Not Active = under 50% inhibition at 10 µM
[1] = target: 5-hydroxytryptamine receptor 1B (Rattus norvegicus, UniProt P28564); format: cell membranes, Wistar, Cerebral cortex, Membrane; further: in other assays of this panel Not Active means under 50% inhibition at 10 µM
[2] = target: T1, 5-hydroxytryptamine receptor 2C (Homo sapiens, UniProt P28335); experiment: DRUGMATRIX: Serotonin (5-Hydroxytryptamine) 5-HT2C radioligand binding (ligand: [3H] Mesulergine); format: cell membranes, CHO-K1, Membrane; conditions: cho-k1; Not Active = under 50% inhibition at 10 µM
T1 sequence (P28335 whole entry): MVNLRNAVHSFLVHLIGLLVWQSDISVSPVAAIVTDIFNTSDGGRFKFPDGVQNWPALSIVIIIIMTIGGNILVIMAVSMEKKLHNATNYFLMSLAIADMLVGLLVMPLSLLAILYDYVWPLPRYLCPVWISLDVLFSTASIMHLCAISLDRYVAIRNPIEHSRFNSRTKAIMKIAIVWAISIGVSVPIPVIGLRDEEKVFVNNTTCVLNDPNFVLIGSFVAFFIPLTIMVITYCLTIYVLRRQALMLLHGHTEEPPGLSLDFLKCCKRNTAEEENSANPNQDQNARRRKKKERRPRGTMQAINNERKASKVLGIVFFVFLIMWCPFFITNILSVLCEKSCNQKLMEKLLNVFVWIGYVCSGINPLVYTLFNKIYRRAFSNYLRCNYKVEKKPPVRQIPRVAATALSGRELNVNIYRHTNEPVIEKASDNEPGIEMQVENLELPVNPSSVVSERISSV

D(4) dopamine receptor = target: T2, D(4) dopamine receptor (Homo sapiens, UniProt P21917); experiment: DRUGMATRIX: Dopamine D4.2 radioligand binding (ligand: [3H] Spiperone); format: cell membranes, CHO-K1, Membrane; conditions: cho-k1; Not Active = under 50% inhibition at 10 µM
T2 sequence (P21917 whole entry): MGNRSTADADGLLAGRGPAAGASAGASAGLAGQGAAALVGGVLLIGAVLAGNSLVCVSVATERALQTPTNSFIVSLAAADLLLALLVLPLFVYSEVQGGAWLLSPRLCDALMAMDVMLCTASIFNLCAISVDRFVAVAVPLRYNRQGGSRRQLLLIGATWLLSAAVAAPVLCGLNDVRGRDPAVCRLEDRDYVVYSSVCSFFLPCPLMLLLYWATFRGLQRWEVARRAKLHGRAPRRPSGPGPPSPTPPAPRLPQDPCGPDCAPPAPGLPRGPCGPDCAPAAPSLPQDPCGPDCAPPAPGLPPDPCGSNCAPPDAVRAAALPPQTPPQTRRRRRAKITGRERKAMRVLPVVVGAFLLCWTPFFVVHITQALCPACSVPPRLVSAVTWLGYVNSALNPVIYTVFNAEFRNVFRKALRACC

[3] = DRUGMATRIX: Leukotriene, BLT (LTB4) radioligand binding (ligand: [3H]LTB4); format: cell membranes, Membrane; conditions: u-937; Not Active = under 50% inhibition at 10 µM
Cathepsin G = target: T3, Cathepsin G (Homo sapiens, UniProt P08311); format: tissue-based; conditions: neutrophil;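 further: inhibition of Cathepsin G enzyme activity, tested on an AMC-conjugated peptide substrate; in other assays of this panel Not Active means under 50% inhibition at 10 µM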
T3 sequence (P08311 whole entry): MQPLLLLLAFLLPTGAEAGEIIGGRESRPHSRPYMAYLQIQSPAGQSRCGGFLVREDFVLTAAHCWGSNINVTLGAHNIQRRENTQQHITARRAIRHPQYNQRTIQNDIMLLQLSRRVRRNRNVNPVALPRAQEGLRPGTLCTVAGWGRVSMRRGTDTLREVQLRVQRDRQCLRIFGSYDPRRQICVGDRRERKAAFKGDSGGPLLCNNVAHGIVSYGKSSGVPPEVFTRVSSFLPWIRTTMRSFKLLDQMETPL

[4] = DRUGMATRIX: Sigma2 radioligand binding (ligand: [3H] Ifenprodil); format: cell membranes, Rattus norvegicus, Wistar, Brain, Membrane; conditions: Not Active = under 50% inhibition at 10 µM
[5] = target: Beta-1 adrenergic receptor (Homo sapiens, UniProt P08588); experiment: DRUGMATRIX: Adrenergic beta1 radioligand binding (ligand: [125I] Cyanopindolol); format: cell membranes, CHO-K1, Membrane; conditions: cho-k1; Not Active = under 50% inhibition at 10 µM
[6] = target: T4, Cysteinyl leukotriene receptor 1 (Homo sapiens, UniProt Q9Y271); format: cell membranes, CHO-K1, Membrane; conditions: cho-k1; further: in other assays of this panel Not Active means under 50% inhibition at 10 µM
T4 sequence (Q9Y271 whole entry): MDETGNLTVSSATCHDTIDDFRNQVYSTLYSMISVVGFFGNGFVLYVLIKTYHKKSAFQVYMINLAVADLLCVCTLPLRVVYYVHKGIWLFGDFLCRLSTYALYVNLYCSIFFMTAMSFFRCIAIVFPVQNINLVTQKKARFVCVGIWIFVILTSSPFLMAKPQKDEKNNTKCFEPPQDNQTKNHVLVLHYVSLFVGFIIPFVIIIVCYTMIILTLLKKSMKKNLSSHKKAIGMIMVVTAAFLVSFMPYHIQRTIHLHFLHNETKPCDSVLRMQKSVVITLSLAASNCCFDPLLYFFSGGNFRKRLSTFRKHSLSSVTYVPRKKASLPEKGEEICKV

[7] = target: Tyrosine-protein kinase Fyn (Homo sapiens, UniProt P06241); experiment: biochemical; format: cell-based, Insect cells; conditions: insect cells;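 further: enzymatic inhibition of Fyn kinase activity measured with Poly(Glu:Tyr) as the phosphorylation substrate; in other assays of this panel Not Active means under 50% inhibition at 10 µM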
Melanocortin receptor 4 = Melanocortin receptor 4 (Homo sapiens, UniProt P32245); format: cell membranes, Membrane; conditions: hek293; further: in other assays of this panel Not Active means under 50% inhibition at 10 µM
Caspase-1 = target: T5, Caspase-1 (Homo sapiens, UniProt P29466); design: species or system Escherichia coli
T5 sequence (P29466 whole entry): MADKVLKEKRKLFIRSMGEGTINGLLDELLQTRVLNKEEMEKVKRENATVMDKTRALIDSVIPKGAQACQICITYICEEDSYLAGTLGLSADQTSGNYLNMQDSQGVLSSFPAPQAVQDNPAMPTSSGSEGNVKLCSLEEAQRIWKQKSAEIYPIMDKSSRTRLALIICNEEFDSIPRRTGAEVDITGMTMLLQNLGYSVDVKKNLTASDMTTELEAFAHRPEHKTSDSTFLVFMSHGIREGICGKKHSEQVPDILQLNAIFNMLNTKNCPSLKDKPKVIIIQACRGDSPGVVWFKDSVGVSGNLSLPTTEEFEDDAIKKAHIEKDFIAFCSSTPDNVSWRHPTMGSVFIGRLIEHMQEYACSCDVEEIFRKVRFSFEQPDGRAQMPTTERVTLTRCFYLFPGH

Melanocortin receptor 5 = Melanocortin receptor 5 (Homo sapiens, UniProt P33032); format: cell membranes, HEK293, Membrane; conditions: hek293; further: in other assays of this panel Not Active means under 50% inhibition at 10 µM
[8] = DRUGMATRIX: Purinergic P2X radioligand binding (ligand: [3H] alpha, beta-Methylene-ATP); format: cell membranes, Oryctolagus cuniculus, New Zealand albino, Urinary bladder, Membrane; conditions: Not Active = under 50% inhibition at 10 µM
[9] = DRUGMATRIX: beta-Lactamase enzyme inhibition (substrate: Nitrocefin); design: species or system Bacillus cereus; conditions: Not Active = under 50% inhibition at 10 µM
[10] = target: Epidermal growth factor receptor (Homo sapiens, UniProt P00533); experiment: DRUGMATRIX: Protein Tyrosine Kinase, EGF Receptor enzyme inhibition (substrate: Poly(Glu:Tyr)); format: cell-based, Insect cells; conditions: insect cells; Not Active = under 50% inhibition at 10 µM
Epidermal growth factor receptor, sequence (P00533 whole entry): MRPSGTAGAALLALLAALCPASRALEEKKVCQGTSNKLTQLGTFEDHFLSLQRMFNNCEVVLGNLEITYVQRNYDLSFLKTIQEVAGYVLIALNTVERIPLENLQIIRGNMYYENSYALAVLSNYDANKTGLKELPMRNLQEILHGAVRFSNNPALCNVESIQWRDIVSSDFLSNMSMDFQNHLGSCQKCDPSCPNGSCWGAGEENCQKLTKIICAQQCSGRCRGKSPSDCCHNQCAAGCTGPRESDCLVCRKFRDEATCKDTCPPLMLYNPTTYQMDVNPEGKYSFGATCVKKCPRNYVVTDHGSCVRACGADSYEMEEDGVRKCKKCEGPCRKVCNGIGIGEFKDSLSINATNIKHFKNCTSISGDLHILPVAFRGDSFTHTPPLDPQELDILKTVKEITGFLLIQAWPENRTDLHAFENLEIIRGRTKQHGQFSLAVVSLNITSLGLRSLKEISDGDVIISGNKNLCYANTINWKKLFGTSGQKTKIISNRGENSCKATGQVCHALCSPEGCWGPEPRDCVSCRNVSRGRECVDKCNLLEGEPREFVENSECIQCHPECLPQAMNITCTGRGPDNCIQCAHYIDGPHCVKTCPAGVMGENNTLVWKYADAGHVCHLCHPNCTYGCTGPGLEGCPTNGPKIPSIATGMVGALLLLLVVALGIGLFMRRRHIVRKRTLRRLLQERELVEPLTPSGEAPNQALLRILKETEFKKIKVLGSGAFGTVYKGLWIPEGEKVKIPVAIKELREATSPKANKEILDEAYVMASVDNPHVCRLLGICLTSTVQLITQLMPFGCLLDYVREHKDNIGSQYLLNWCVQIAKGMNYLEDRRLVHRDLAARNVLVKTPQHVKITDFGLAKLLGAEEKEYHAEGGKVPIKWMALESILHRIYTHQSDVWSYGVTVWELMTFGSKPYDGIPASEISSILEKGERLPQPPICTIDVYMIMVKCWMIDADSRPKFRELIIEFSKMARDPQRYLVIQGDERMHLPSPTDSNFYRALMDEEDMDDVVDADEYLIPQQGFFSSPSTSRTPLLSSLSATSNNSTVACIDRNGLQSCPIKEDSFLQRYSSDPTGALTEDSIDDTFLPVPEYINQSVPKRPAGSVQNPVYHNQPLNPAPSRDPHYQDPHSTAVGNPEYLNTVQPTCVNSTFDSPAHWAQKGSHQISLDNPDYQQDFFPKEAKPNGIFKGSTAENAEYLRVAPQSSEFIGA

Melanocortin receptor 4, sequence (P32245 whole entry): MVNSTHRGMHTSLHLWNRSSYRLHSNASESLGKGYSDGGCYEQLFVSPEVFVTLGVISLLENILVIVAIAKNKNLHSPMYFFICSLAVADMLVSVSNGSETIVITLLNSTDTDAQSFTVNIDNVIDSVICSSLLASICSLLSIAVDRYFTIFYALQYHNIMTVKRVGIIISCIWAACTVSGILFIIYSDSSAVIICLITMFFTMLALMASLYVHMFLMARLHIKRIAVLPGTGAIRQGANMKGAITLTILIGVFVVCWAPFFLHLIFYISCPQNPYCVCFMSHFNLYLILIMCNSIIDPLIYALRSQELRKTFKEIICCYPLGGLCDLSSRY
Melanocortin receptor 5, sequence (P33032 whole entry): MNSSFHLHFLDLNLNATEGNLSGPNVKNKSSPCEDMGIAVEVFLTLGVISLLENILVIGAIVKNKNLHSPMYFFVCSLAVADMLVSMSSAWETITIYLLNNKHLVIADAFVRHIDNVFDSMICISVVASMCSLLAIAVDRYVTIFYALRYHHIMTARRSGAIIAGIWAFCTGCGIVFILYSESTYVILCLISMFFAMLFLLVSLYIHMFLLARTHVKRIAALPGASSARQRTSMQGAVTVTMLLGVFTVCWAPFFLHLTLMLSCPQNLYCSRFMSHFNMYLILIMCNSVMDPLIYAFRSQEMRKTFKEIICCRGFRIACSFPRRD
Beta-1 adrenergic receptor, sequence (P08588 whole entry): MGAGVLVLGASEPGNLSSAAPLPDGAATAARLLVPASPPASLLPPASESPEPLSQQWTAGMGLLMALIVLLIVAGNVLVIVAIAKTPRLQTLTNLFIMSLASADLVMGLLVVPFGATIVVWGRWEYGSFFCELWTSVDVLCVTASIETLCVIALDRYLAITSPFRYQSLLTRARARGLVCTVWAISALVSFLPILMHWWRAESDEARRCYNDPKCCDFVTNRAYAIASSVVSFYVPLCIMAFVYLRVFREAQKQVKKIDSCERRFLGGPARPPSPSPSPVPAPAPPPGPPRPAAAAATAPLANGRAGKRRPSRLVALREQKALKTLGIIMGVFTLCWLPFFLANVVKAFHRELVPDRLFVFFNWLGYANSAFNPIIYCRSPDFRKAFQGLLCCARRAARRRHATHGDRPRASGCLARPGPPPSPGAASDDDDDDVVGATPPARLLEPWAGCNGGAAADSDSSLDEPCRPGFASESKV
Mu-type opioid receptor, sequence (P35372 whole entry): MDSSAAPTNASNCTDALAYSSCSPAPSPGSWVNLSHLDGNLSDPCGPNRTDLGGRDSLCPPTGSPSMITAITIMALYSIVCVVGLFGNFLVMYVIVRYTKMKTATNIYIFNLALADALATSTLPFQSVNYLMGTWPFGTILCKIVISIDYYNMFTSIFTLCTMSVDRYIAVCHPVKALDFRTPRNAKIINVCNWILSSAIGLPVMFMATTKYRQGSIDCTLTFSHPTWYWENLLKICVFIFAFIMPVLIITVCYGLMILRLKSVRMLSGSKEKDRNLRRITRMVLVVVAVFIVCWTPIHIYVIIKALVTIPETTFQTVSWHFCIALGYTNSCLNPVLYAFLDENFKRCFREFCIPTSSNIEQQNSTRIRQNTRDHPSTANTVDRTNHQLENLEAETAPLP
Tyrosine-protein kinase Fyn, sequence (P06241 whole entry): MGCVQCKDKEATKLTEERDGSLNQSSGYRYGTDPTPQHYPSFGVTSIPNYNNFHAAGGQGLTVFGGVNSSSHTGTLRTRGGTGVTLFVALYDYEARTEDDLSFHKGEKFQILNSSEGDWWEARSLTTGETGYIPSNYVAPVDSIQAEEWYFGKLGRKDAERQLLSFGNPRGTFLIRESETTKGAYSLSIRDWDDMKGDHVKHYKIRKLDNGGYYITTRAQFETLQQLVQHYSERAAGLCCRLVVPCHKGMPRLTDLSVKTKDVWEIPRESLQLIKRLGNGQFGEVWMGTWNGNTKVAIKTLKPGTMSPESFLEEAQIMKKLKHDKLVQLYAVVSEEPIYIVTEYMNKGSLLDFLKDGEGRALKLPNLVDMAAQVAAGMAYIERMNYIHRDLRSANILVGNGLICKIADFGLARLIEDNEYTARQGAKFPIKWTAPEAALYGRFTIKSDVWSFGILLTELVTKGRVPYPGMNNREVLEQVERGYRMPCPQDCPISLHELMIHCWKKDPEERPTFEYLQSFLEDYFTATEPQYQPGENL
5-hydroxytryptamine receptor 1B, sequence (P28564 whole entry): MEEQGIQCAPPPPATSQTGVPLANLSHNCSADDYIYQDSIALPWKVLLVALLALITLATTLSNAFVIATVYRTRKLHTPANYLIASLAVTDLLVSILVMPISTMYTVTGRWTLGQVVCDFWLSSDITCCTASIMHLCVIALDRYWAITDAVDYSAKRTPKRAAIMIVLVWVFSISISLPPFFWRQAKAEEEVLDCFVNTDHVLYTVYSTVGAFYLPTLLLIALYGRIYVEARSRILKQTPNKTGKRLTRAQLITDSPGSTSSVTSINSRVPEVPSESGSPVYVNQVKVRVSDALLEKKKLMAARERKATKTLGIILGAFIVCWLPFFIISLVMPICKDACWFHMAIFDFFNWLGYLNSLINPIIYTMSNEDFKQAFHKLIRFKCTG

O=c1cc(-c2ccccc2)oc2c1ccc1ccccc12 [ALPHA-NAPHTHOFLAVONE]
Not Active: IC50 (Mu-type opioid receptor) | IC50 [1] | IC50 [2] | IC50 (D(4) dopamine receptor) | IC50 [3] | Ki [3] | IC50 (Cathepsin G) | IC50 [4] | Ki [4] | IC50 [5] | IC50 [6] | IC50 [7] | IC50 (Melanocortin receptor 4) | IC50 (Caspase-1) | IC50 (Melanocortin receptor 5) | IC50 [8] | Ki [8] | IC50 [9] | Ki [9] | IC50 [10]

Reference: ChEMBL document CHEMBL1909046, “DrugMatrix in vitro pharmacology data”
